Consider 4 molecules from article PMC12583498, “Distinct filament morphology and membrane tethering features of the dual FtsZ paralogs in Odinarchaeota” (The EMBO journal, 2025).

Experiment [1] addresses T1, OdinFtsZ2 (Candidatus Odinarchaeum yellowstonii, UniProt A0AAF0D3V8).
T1 construct: gene ftsZ; full length, synthetic gene, 6His-bdSUMO tag cleaved by Ulp protease, E. coli BL21(DE3); assembles into stacked rings
T1 sequence (A0AAF0D3V8 1-402): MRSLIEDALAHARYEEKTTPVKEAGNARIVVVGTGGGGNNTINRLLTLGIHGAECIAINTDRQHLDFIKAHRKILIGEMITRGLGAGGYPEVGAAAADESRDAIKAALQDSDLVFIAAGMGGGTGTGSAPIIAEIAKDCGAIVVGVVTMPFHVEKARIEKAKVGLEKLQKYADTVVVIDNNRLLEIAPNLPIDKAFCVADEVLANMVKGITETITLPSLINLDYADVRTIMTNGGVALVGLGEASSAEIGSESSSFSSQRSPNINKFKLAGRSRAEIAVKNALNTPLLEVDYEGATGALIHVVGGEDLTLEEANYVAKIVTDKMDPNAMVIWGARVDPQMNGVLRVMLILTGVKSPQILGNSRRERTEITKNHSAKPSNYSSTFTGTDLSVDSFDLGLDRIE
Kind of experiment: negative-stain TEM of polymerization. Type of experiment: biochemical. The conditions noted are these: […] nucleotide, […] MgCl2, pH […] KCl, […] °C.

Experiment [2] has as its target OdinSepF (Candidatus Odinarchaeum yellowstonii LCB_4). Kind of experiment: SEC-MALS; Superdex 75 Increase 10/300 GL, HK50 buffer (50 mM HEPES pH 7.4, 50 mM KCl), room temperature, OdinSepF 2 mg/ml, 100 μl.
Experiment [3] has as its target T1, OdinFtsZ2. The experiment is described as follows: […] degree light scattering and TEM / cryo-EM of polymerization. Type of experiment: biochemical. To be noted: […] GTP, […] Mg2+, pH […] KCl, […] °C; nucleotide-dependent assembly.
Experiment [4] has as its target T2, OdinFtsZ1 (Candidatus Odinarchaeum yellowstonii, UniProt A0AAF0ID74).
T2 construct: full length (363 residues by primer name), synthetic gene, 6His-bdSUMO tag cleaved by Ulp protease, E. coli BL21(DE3); residues 34-332 modelled in cryo-EM
T2 sequence (A0AAF0ID74 1-360): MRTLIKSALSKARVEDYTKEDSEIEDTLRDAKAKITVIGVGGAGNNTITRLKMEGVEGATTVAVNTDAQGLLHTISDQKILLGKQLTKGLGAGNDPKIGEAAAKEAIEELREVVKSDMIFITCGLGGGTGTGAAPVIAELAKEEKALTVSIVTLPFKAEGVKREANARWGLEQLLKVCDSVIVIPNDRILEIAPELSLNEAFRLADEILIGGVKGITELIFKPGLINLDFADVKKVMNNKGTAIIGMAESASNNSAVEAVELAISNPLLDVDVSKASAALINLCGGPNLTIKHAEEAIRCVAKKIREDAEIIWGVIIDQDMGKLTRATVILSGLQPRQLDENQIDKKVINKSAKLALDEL
Kind of experiment: light scattering and sedimentation assay of polymerization. It is filed as biochemical. To be noted: […] GTP, […] Mg2+, pH […] KCl, […] °C.

In experiment [5] the target is T2, OdinFtsZ1. Kind of experiment: cryo-EM structure of filament. Type of experiment: binding. The conditions noted are these: […] GMPCPP, […] MgCl2, pH […], on ice; nucleotide pocket at subunit interface; map resolution […] A.

In the case of `Nc1nc2c(ncn2[C@@H]2O[C@H](COP(=O)(O)OP(=O)(O)OP(O)(O)=S)[C@@H](O)[C@H]2O)c(=O)[nH]1` [GTPγS], the “negative-stain TEM of polymerization” value on OdinFtsZ2 [1] is “OdinFtsZ2 formed highly curved, stacked ring-like structures when provided with GTP or GTPγS”.

One may read the stoichiometry N as a count of units in the complex or per binding partner. Consider OdinSepF (natural protein), for which, in experiment [2], the stoichiometry N amounted to 2.

For the molecule `Nc1nc2c(ncn2[C@@H]2O[C@H](COP(=O)(O)OP(=O)(O)OP(=O)(O)O)[C@@H](O)[C@H]2O)c(=O)[nH]1` [GTP], on OdinFtsZ2 [3], the “90 degree light scattering and TEM / cryo-EM of polymerization” value is “OdinFtsZ2 formed highly curved, stacked ring-like structures when provided with GTP or GTPγS”. Besides, the “light scattering and sedimentation assay of polymerization” value on OdinFtsZ1 [4] is given as “GTP addition significantly enhanced the amount of OdinFtsZ1 in the pellet fraction”.

For `Nc1nc2c(ncn2[C@@H]2O[C@H](COP(=O)(O)CP(=O)(O)OP(=O)(O)O)[C@@H](O)[C@H]2O)c(=O)[nH]1` [GMPCPP], the “cryo-EM structure of filament” value at OdinFtsZ1 [5] is given as “A non-protein density was detected within the nucleotide-binding pocket using Servalcat”.
